Source: US20010014694A1, “Substituted phenyl compounds and derivatives thereof that modulate the activity of endothelin” (priority 1996, published 2001)

Columns and labels:
ETA and ETB receptors = test: Endothelin binding inhibition assays of the Examples, result stated for ETA and/or ETB; design: species or system human; settings: relative to the other compounds listed; in vitro binding assays
Text: (§1) Compounds that are potential endothelin antagonists are identified by testing their ability to compete with ^125I-labeled ET-1 for binding to human ETA receptors or ETB receptors present on isolated cell membranes. The effectiveness of the test compound as an antagonist or agonist of the biological tissue response of endothelin can also be assessed by measuring the effect on endothelin induced contraction of isolated rat thoracic aortic rings. The ability of the compounds to act as antagonists or agonists for ETB receptors can be assess by testing the ability of the compounds are to inhibit endothelin-1 induced prostacyclin release from cultured bovine aortic endothelial cells.
(§2) A. Endothelin Binding Inhibition—Binding Test #1: Inhibition of Binding to ETA Receptors
(§3) TE 671 cells (ATCC Accession No. HTB 139) express ETA receptors. These cells were grown to confluence in T-175 flasks. Cells from multiple flasks were collected by scraping, pooled and centrifuged for 10 min at 190×g. The cells were resuspended in phosphate buffered saline (PBS) containing 10 mM EDTA using a Tenbroeck homogenizer. The suspension was centrifuged at 4° C. at 57,800×g for 15 min, the pellet was resuspended in 5 ml of buffer A (5 mM HEPES buffer, pH 7.4 containing aprotinin (100 KIU/ml)) and then frozen and thawed once. 5 ml of Buffer B (5 mM HEPES Buffer, pH 7.4 containing 10 mM MnCl2 and 0.001% deoxyribonuclease Type 1) was added, the suspension mixed by inversion and then incubated at 37° C. for 30 minutes. The mixture was centrifuged at 57,800×g as described above, the pellet washed twice with buffer A and then resuspended in buffer C (30 mM HEPES buffer, pH 7.4 containing aprotinin (100 KIU/ml) to give a final protein concentration of 2 mg/ml and stored at −70° C. until use.
(§4) The membrane suspension was diluted with binding buffer (30 mM HEPES buffer, pH 7.4 containing 150 mM NaCl, 5 mM MgCl2, 0.5% Bacitracin) to a concentration of 8 μg/50 μl. ^25I-endothelin-1 (3,000 cpm, […]) was added to 50 μl of either: (A) endothelin-1 (for non specific binding) to give a final concentration 80 nM); (B) binding buffer (for total binding); or (C) a test compound (final concentration 1 nM to 100 μM). The membrane suspension (50 μl), containing up to 8 μg of membrane protein, was added to each of (A), (B), or (C). Mixtures were shaken, and incubated at 4° C. for 16-18 hours, and then centrifuged at 4° C. for 25 min at 2,500×g. Alternatively, the incubation was conducted at 24° C. When incubated at 24° C., the IC50 concentrations are 2- to 10-fold higher than when the incubation is conducted at 4° C. This, must be kept in mind when comparing IC50 concentrations among compounds provided herein.
The supernatant, containing unbound radioactivity, was decanted and the pellet counted on a Genesys multiwell gamma counter. The degree of inhibition of binding (D) was calculated according to the following equation: [formula]
Each test was generally performed in triplicate.
(§5) B. Endothelin Binding Inhibition—Binding Test #2: Inhibition of Binding to ETB Receptors
(§6) COS7 cells were transfected with DNA encoding the ETB receptor, The resulting cells, which express the human ETB receptor, were grown to confluence in T-150 flasks. Membrane was prepared as described above. The binding assay was performed as described above using the membrane preparation diluted with binding buffer to a concentration of 1 μg/50 μl.
Briefly, the COS7 cells, described above, that had been transfected with DNA encoding the ETB receptor and express the human ETB receptor on their surfaces were grown to confluence in T-175 flasks. Cells from multiple flasks were collected by scraping, pooled and centrifuged for 10 min at 190×g. The cells were resuspended in phosphate buffered saline (PBS) containing 10 mM EDTA using a Tenbroeck homogenizer. The suspension was centrifuged at 4° C. […]

human ETB receptor = molecular target: T1, human ETB receptor (Homo sapiens, UniProt P24530); test: Binding Test #2: inhibition of 125I-labeled ET-1 binding to ETB receptors (transfected COS7 cell membranes); settings: ETB over ETA; preferably at least 3-fold greater affinity, more preferably 5-fold or more
T1 construct: expressed in transfected cells; host or cells: COS7 cells, membrane preparation
T1 sequence (P24530 27-442): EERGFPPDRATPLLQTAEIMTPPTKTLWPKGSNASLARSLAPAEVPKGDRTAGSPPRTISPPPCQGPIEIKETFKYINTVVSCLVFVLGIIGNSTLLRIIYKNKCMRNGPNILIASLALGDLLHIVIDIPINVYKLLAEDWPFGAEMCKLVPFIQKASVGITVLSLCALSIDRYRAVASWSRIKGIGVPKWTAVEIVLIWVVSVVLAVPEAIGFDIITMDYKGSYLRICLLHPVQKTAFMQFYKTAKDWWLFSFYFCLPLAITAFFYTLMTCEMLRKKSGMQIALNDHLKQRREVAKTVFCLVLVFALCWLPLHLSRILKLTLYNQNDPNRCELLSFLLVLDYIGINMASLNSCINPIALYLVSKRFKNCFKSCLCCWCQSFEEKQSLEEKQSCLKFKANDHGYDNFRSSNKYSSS
Text: as §1, §5, §6
Briefly, the COS7 cells, described above, that had been transfected with DNA encoding the ETB receptor and express the human ETB receptor on their surfaces were grown to confluence in T-175 flasks. Cells from multiple flasks were collected by scraping, pooled and centrifuged for 10 min at 190×g. The cells were resuspended in phosphate buffered saline (PBS) containing 10 mM EDTA using a Tenbroeck homogenizer. The suspension was centrifuged at 4° C. 57,800×g for 15 min, the pellet was resuspended in 5 ml of buffer A (5 mM HEPES buffer, pH 7.4 containing aprotinin (100 KIU/ml)) and then frozen and thawed once. Five ml of Buffer B (5 mM HEPES Buffer, pH 7.4 containing 10 mM MnCl2 and 0.001% deoxyribonuclease Type 1) was added, the suspension mixed by inversion and then incubated at 37° C. for 30 minutes. The mixture was centrifuged at 57,800×g as described above, the pellet washed twice with buffer A and then resuspended in buffer C (30 mM HEPES buffer, pH 7.4 containing aprotinin (100 KIU/ml) to give a final protein concentration of 2 mg/ml.
The binding assay was performed as described above using the membrane preparation diluted to give 1 μg/50 μl of binding buffer.

human ETA receptors = molecular target: T2, human ETA receptors (Homo sapiens, UniProt P25101); test: Binding Test #1: inhibition of 125I-labeled ET-1 binding to ETA receptors (TE 671 cell membranes); settings: ETA over ETB; preferably at least 3-fold greater affinity, more preferably 5-fold or more
T2 construct: endogenous in cells; host or cells: TE 671 cells (ATCC HTB 139), membrane preparation
T2 sequence (P25101 21-427): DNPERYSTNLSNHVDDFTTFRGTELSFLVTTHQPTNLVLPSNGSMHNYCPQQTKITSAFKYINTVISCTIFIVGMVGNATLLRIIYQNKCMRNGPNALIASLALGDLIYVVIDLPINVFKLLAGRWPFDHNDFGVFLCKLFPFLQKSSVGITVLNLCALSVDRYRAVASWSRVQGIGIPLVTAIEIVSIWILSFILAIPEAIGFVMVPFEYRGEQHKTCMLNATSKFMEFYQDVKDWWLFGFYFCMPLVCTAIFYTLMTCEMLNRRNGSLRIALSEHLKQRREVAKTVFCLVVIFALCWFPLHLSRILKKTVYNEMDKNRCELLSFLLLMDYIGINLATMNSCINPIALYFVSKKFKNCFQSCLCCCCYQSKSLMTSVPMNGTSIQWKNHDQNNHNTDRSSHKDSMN
Text: as §1, §2, §3
as §4, with “When incubated at 24° C., the IC50 concentrations are 2- to 10-fold higher than when the incubation is conducted at 4° C. This, must be kept in mind when comparing IC50 concentrations among compounds provided herein.” left out
The supernatant, containing unbound radioactivity, was decanted and the pellet counted on a Genesys multiwell gamma counter. The degree of inhibition of binding (D) was calculated according to the following equation: [formula] […]

O=C(O)/C=C/c1cc2c(cc1Oc1cccc(Oc3ccc4c(c3)OCO4)c1C(=O)O)OCO2 [Example 20, 2-(3,4-methylenedioxy)phenoxy-6-[2-carboxy-trans-ethenyl-4,5-(methylenedioxy)phenoxy]benzoic acid]
More active among these compounds (ETA and ETB receptors): More active

O=C(O)c1c(Oc2ccc3c(c2)OCO3)cccc1Oc1ccc2c(c1)OCO2 [Example 5, 2,6-bis-[3,4-(methylenedioxy)phenoxy]benzoic acid]
More active among these compounds (ETA and ETB receptors): More active

COc1ccc(Sc2cccc(Oc3ccc4c(c3)OCO4)c2C(=O)O)cc1 [Example 12, 2-(4-methoxythiophenoxy)-6-[3,4-(methylenedioxy)phenoxy]benzoic acid]
More active among these compounds (ETA and ETB receptors): More active

2-[3,4-(methylenedioxy)phenoxy]-6-[2-(1-propenyl)-3,4-(methylenedioxy)phenoxy]benzoic acid [Example 17]
ETB selective (interact with greater affinity with one receptor sub-type than with the other) (human ETB receptor): ETB selective
More active among these compounds (ETA and ETB receptors): More active

4,6-Bis[2-carboxy-3,4-(methylenedioxy)phenoxy]-2-(methylthio)pyrimidine
ETA selective (interact with greater affinity with one receptor sub-type than with the other) (human ETA receptors): ETA selective

COc1ccc(Oc2cccc(Oc3ccc(OC)cc3)c2C(=O)O)cc1 [Example 6, 2,6-bis-(4-methoxyphenoxy)benzoic acid]
ETB selective (interact with greater affinity with one receptor sub-type than with the other) (human ETB receptor): ETB selective
melting point: 222 to 224 °C

CCCc1cc2c(cc1Oc1cccc(Oc3ccc4c(c3)OCO4)c1C(=O)O)OCO2 [Example 18, 2-(3,4-methylenedioxy)phenoxy-6-[2-propyl-4,5-(methylenedioxy)phenoxy]benzoic acid]
More active among these compounds (ETA and ETB receptors): More active

COc1ccc(Oc2cccc(Oc3ccc4c(c3)OCO4)c2C(=O)O)cc1 [Example 1, 2-(4-Methoxyphenoxy)-6-[3,4-(methylenedioxy)phenoxy]benzoic acid]
More active among these compounds (ETA and ETB receptors): More active

O=C(O)c1c(Oc2ccccc2)cccc1Oc1ccccc1 [Example 9, 2,6-diphenoxybenzoic acid]
melting point: 150 to 153 °C

Cc1cccc(Oc2cccc(Oc3ccc4c(c3)OCO4)c2C(=O)O)c1 [Example 11, 2-[3,4-(methylenedioxy)phenoxy]-6-(3-methylphenoxy)benzoic acid]
More active among these compounds (ETA and ETB receptors): More active

O=C(O)CCc1cc2c(cc1Oc1cccc(Oc3ccc4c(c3)OCO4)c1C(=O)O)OCO2 [Example 19, 2-(3,4-methylenedioxy)phenoxy-6-[2-carboxyethyl-4,5-(methylenedioxy)phenoxy]benzoic acid]
ETB selective (interact with greater affinity with one receptor sub-type than with the other) (human ETB receptor): ETB selective
More active among these compounds (ETA and ETB receptors): More active

4-[2-carboxy-3,4-(methylenedioxy)phenoxy]-6-[3,4-(methylenedioxy)phenoxy]-2-(methylthio)-pyrimidine
ETA selective (interact with greater affinity with one receptor sub-type than with the other) (human ETA receptors): ETA selective

Cc1ccc(Oc2cccc(Oc3ccc4c(c3)OCO4)c2C(=O)O)c(Br)c1 [Example 7, 2-(2-Bromo-4-methylphenoxy)-6-[3,4-(methylenedioxy)phenoxy]benzoic acid]
More active among these compounds (ETA and ETB receptors): More active

O=C(O)Cc1cccc(Oc2cccc(Oc3ccc4c(c3)OCO4)c2C(=O)O)c1 [Example 13, 2-[(3-Carboxymethyl)phenoxy]-6-[3,4-(methylenedioxy)phenoxy]benzoic acid]
ETA selective (interact with greater affinity with one receptor sub-type than with the other) (human ETA receptors): ETA selective
ETB selective (interact with greater affinity with one receptor sub-type than with the other) (human ETB receptor): ETB selective

Ethyl 2-[3,4-(methylenedioxy)phenoxy]-6-[2-(carboxyethyl)-4-methoxyphenoxy]benzoate [Example 22]
More active among these compounds (ETA and ETB receptors): More active

Cc1ccc(Oc2cccc(Oc3ccc4c(c3)OCO4)c2C(=O)O)cc1 [Example 2, 2-[3,4-(methylenedioxy)phenoxy]-6-(4-methylphenoxy)benzoic acid]
More active among these compounds (ETA and ETB receptors): More active

O=C(O)Cc1ccc(Oc2cccc(Oc3ccc4c(c3)OCO4)c2C(=O)O)cc1 [Example 14, 2-[(4-Carboxymethyl)phenoxy]-6-[3,4-(methylenedioxy)phenoxy]benzoic acid]
ETA selective (interact with greater affinity with one receptor sub-type than with the other) (human ETA receptors): ETA selective

COc1cccc(Oc2cccc(Oc3ccc4c(c3)OCO4)c2C(=O)O)c1 [Example 26, 2-[3,4-(methylenedioxy)phenoxy]-6-(3-methoxyphenoxy)benzoic acid]
More active among these compounds (ETA and ETB receptors): More active

2-[3,4-(methylenedioxy)phenoxy]-6-[(2-carboxyethyl)-4-methoxyphenoxy]benzoic acid [Example 23]
More active among these compounds (ETA and ETB receptors): More active
